Experimental data published in patent publication US7326422B2, “Dissolvable oxides for biological applications” (DelSiTech Oy, priority 1996, dated 2008).
Counter-ions that a name gives are not always drawn.

What was measured:
[1] = during the first day; crushed silica xerogel particles of 500-700 μm; cited from earlier work
[2] = In vitro dissolution test, USP XXII dissolution apparatus II (paddle method), SBF pH 7.4 with 0.5% sodium dodecyl sulphate, 37° C.; type: physicochemical; settings: for Dissolution of toremifene citrate: b: silica xerogel with PEG 4,600; for Release of toremifene citrate: SLOPE: silica xerogel; for release of toremifene citrate: linear, zero-order
Method: Simulated body fluid (SBF, pH 7.4) containing 0.5% […] sodium dodecyl sulphate was used as dissolution medium. SBF was prepared by dissolving reagent grade NaCl (136.8 mM), NaHCO3 (4.2 mM), KCl (3.0 mM), K2HPO4×3H2O (1.0 mM), MgCl2×6H2O (1.5 mM), CaCl2×2H2O […] and Na2SO4 (0.5 mM) in distilled water. They were buffered at pH 7.4 with tris-(hydroxymethyl)aminomethane (50 mM) and hydrochloric acid.
The volume of dissolution medium was 250 ml. Agitation intensity was 50 rpm and temperature was 37° C. […]

[3] = Dissolution of spray dried or crushed gel particles in 250 ml SBF, USP XXII dissolution apparatus II (paddle method); type: physicochemical; settings: for toremifene citrate released: after 30 hours; for slope (%/h^1/2): microspheres with 11 w-% toremifene citrate
Method: The solution for spray drying purpose was prepared with a mole ratio of TEOS:H2O:HCl=1.0:14.2:0.003. […] Before spray drying the pH of the sol was adjusted to pH 2.1 with hydrochloric acid. Silica sol was spray dried immediately or after 65 hours aging at room temperature. The spray drying conditions were as described in Example 6. […] About 42 mg of gel particles were placed in 250 ml of simulated body fluid (SBF) at 37° C. and pH 7.4.

## CN[C@H](CC(C)C)C(=O)N[C@H]1C(=O)N[C@@H](CC(N)=O)C(=O)N[C@H]2C(=O)N[C@H]3C(=O)N[C@H](C(=O)N[C@H](C(=O)O)c4cc(O)cc(O)c4-c4cc3ccc4O)[C@H](O)c3ccc(c(Cl)c3)Oc3cc2cc(c3O[C@@H]2O[C@H](CO)[C@@H](O)[C@H](O)[C@H]2O[C@H]2C[C@](C)(N)[C@H](O)[C@H](C)O2)Oc2ccc(cc2Cl)[C@H]1O [vancomycin]
[1]
  incorporated vancomycin released: about 90%

## CN(C)CCOc1ccc(/C(=C(/CCCl)c2ccccc2)c2ccccc2)cc1 [toremifene citrate]
[2]; silica xerogel monolith with PEG 4,600
  release faster from 28 days aged silica xerogels than from unaged: about 30%
[2]; aging 0 days, dried at 11.4 RH-%
  Dissolution of toremifene citrate: b: b = 0.46%/mg %/mg implant/h^1/2
[2]; aging 0 days, dried at 48.4 RH-%
  Dissolution of toremifene citrate: b: b = 0.53 %/mg implant/h^1/2
[2]; aging 0 days, dried at 74.7 RH-%
  Dissolution of toremifene citrate: b: b = 0.46 %/mg implant/h^1/2
[2]; aging 7 days, dried at 11.4 RH-%
  Dissolution of toremifene citrate: b: b = 0.59 %/mg implant/h^1/2
[2]; aging 7 days, dried at 48.4 RH-%
  Dissolution of toremifene citrate: b: b = 0.52 %/mg implant/h^1/2
[2]; aging 7 days, dried at 74.7 RH-%
  Dissolution of toremifene citrate: b: b = 0.06%/mg %/mg implant/h
[2]; aging 28 days, dried at 11.4 RH-%
  Dissolution of toremifene citrate: b: b = 0.67 %/mg implant/h^1/2
[2]; aging 28 days, dried at 48.4 RH-%
  Dissolution of toremifene citrate: b: b = 0.74 %/mg implant/h^1/2
[2]; H2O/TEOS = 6:1, PEG 4600
  Release of toremifene citrate: SLOPE: 0.094%/ %/mg × h
[2]; H2O/TEOS = 6:1, PEG 10000
  Release of toremifene citrate: SLOPE: 0.922%/mg %/mg IMPLANT × h^1/2
[2]; H2O/TEOS = 6:1, without PEG
  Release of toremifene citrate: SLOPE: 0.657%/mg %/mg IMPLANT × h^1/2
[2]; H2O/TEOS = 14:1, PEG 4600
  Release of toremifene citrate: SLOPE: 0.052 %/mg IMPLANT × h
[2]; H2O/TEOS = 14:1, PEG 10000
  Release of toremifene citrate: SLOPE: 0.061 %/mg IMPLANT × h
[2]; H2O/TEOS = 14:1, without PEG
  Release of toremifene citrate: SLOPE: 0.085 %/mg IMPLANT × h
[2]; silica xerogels containing PEG 10 000
  release rate (linear): 0.1 %/mg implant/h
[2]; silica xerogels containing PEG 4600
  release rate (linear): 0.13 %/mg implant/h
[2]; silica-xerogels without polyethylene glycol
  release rate (linear): 0.16 %/mg implant/h
[2]; sintered silica gel (120° C.) containing 11.5 wt-% drug
  release of toremifene citrate: 0.05 %/mg implant/h
[2]; sintered silica gel (120° C.) containing 34.4 wt-% drug
  release of toremifene citrate: 0.11 %/mg implant/h
[2]; spray dried particles (60-200 μm) containing 10.2 w-% toremifene citrate, two months from preparation
  release rate (linear): 0.68 w-% per hour
[3]; microspheres (<50 μm) spray dried at pH 3.8, square root of time kinetics
  toremifene citrate released: 80 w-%
[3]; microspheres from sol aged 65 hours, pH 2
  toremifene citrate released: 63.1 w-%
[3]; microspheres from unaged sol, pH 2
  toremifene citrate released: 75.2 w-%
[3]; crushed silica xerogel granules about 4-50 μm, PEG 4.600
  dissolution rate (square root of time kinetics): 8.1 %/h^1/2
[3]; microspheres aged for 0 h (pH 2)
  cum released toremifene (%) after 30 h: 75.2%
[3]; microspheres aged for 65 h (pH 2)
  cum released toremifene (%) after 30 h: 63.1%
[3]; aged for 0 h (pH 2)
  slope (%/h^1/2): 12.2 %/h^1/2
[3]; aged for 65 h (pH 2)
  slope (%/h^1/2): 9.79 %/h^1/2
[3]; sol aged 65 h vs 0 h, pH 2
  release slower from aged than from unaged microspheres: about 20%
